Here are results for 16 molecules from patent US11414429B2, “Compound or pharmaceutically acceptable salt thereof” (RIKEN, priority 2016, dated 2022).

For one test, the target named is T1, tankyrase 2 (TNKS 2) (Homo sapiens, UniProt Q9H2K2).
T1 construct: 613-1, 116aa; made in house; host or cells: cell-free protein synthesis system
The experiment in a line: Tankyrase inhibitory activity test (ELISA, self-polyADP ribosylation), tankyrase 2. Particulars: tankyrase 2, ELISA, self-polyADP ribosylation; read-out: TNKS2 inhibitory activity (IC50 class). The test is classed as biochemical. In outline:
(§1)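 Flag-tagged TNKS1 (1,024-1,327aa, SAM+PARP) and TNKS2 (613-1,116aa, ANK5+SAM+PARP) were made cell-free and captured overnight at 4 °C on anti-FLAG M2 plates. After 10 min compound preincubation in Tris pH 8.0/MgCl2/DTT buffer, NAD (225 μM) plus biotin-NAD (25 μM) solution was added for 45 min at 30 °C. Auto-PARylation was read by streptavidin-HRP chemiluminescence, giving IC50 from residual activity.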

In a further test the target is T2, tankyrase 1 (TNKS 1) (Homo sapiens, UniProt O95271).
T2 construct: 1,024-1,327aa; made in house; host or cells: cell-free protein synthesis system
Kind of test: Tankyrase inhibitory activity test (ELISA, self-polyADP ribosylation), tankyrase 1. The test is classed as biochemical. As to conditions: tankyrase 1, ELISA, self-polyADP ribosylation; read-out: TNKS1 inhibitory activity (IC50 class). In a few lines:
as §1
(In general: An ELISA detects its analyte on a solid surface through an enzyme-linked reagent.)

For test [1], the system named is human colorectal cancer cell line, COLO-320DM. Kind of test: Cell proliferation inhibitory activity test (Celltiter-Glo Luminescent Cell Viability Assay). Particulars: COLO-320DM cells, 96 hours, read-out: COLO-320 DM cell proliferation inhibitory activity (GI50 class). The test is classed as cell-based. In a few lines:
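Cells grown in RPMI-1640 with 10% FBS and 2 mM glutamine, seeded overnight, then exposed to compound (1% DMSO final) for 96 h at 37° C., 5% CO2. Viability read by ATP luminescence; GI50 is the concentration reducing cell growth to 50% of DMSO control.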
In general terms: Cellular ATP, detected with luciferase, serves as a proxy for viable cell number.

pIC50: −log10 of the molar value.

T2 sequence (O95271 1024-1327): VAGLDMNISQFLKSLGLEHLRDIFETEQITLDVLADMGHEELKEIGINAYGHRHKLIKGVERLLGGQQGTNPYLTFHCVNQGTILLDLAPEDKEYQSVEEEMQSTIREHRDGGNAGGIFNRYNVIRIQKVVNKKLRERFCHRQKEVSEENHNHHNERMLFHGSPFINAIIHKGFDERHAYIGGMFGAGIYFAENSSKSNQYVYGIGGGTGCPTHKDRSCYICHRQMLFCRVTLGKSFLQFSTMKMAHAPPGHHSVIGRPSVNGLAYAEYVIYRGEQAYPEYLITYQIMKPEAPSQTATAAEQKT
T1 sequence (Q9H2K2 613-1166): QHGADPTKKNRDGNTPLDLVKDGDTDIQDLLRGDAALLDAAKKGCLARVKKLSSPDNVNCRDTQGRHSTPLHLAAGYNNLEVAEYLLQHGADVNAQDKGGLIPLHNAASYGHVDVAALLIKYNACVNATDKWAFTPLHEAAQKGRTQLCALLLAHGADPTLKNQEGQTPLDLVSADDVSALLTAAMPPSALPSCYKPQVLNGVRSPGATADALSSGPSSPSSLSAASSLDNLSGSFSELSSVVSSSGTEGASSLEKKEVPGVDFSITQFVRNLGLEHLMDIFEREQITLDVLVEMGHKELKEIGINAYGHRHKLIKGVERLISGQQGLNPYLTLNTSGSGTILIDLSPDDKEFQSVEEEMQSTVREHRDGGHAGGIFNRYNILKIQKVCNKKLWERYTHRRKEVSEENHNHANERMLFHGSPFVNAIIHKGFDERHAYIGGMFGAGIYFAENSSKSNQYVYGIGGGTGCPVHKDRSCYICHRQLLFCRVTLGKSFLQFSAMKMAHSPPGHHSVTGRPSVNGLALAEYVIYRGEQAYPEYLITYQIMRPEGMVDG

As for `CN1CCN(CCOc2cc(F)c3c(c2)N(C)C(=O)C32CCN(c3nc4c(c(=O)[nH]3)CCCN4C)CC2)CC1` [Example 362, 4-fluoro-1-methyl-1′-(8-methyl-4-oxo-3,4,5,6,7,8-hexahydropy-rido[2,3-d]pyrimidin-2-yl)-6-[2-(4-methyl-piperazin-1-yl)ethoxy] spiro[indoline-3,4′-piperidin]-2-one], the pIC50 on tankyrase 2 (TNKS 2) and at tankyrase 1 (TNKS 1) was over 7.70 each time. In addition, in test [1], the GI50 lay in the range of 100 to 600 nM.
Take `CN1CCCc2c1nc(N1CCC3(CC1)C(=O)N(C)c1cc(OCCCN4CCOCC4)cc(F)c13)[nH]c2=O` [Example 365, 4-fluoro-1-methyl-1′-(8-methyl-4-oxo-3,4,5,6,7,8-hexahydro-pyrido[2,3-d]pyrimidin-2-yl)-6-(3-morpholino-propoxy) spiro[indoline-3,4′-piperidin]-2-one]: the pIC50 on tankyrase 2 (TNKS 2) and at tankyrase 1 (TNKS 1) was over 7.70 throughout. Besides, in test [1], the GI50 was 600 to 1000 nM.
For the molecule `COCCOc1cc(F)c2c(c1)N(C)C(=O)C21CCN(c2nc3c(c(=O)[nH]2)CCCN3C)CC1` [Example 366, 4-fluoro-6-(2-methoxy)-1-methyl-1′-(8-methyl-4-oxo-3,4,5,6,7,8-hexahydropy-rido[2,3-d]pyrimidin-2-yl)spiro [indoline-3,4′-piperidin]-2-one], the pIC50 on tankyrase 2 (TNKS 2) and on tankyrase 1 (TNKS 1) was over 7.70 throughout. In addition, the GI50 in test [1] was in the range of 100 to 600 nM.
Turning to `CN1CCCc2c1nc(N1CCC3(CC1)C(=O)N(C)c1cc(OCCCN4CCCC4)cc(F)c13)[nH]c2=O` [Example 367, 4-fluoro-1-methyl-1′-(8-methyl-4-oxo-3,4,5,6,7,8-hexahydropy-rido[2,3-d]pyrimidin-2-yl)-6-[3-(pyrrolidin-1-yl)propoxy] spiro[indoline-3,4′-piperidin]-2-one], the pIC50 at tankyrase 2 (TNKS 2) and at tankyrase 1 (TNKS 1) was over 7.70 each time. In test [1], the GI50 was 100 to 600 nM.
For the molecule `[2H]C([2H])([2H])N1CCCc2c1nc(N1CCC3(CC1)C(=O)N(CCO)c1cc(F)cc(F)c13)[nH]c2=O` [Example 370, 4,6-difluoro-1-(2-hydroxyethyl)-1′-[8-(methyl-d3)-4-oxo-3,4,5,6,7,8-hexahydro-pyrido [2,3-d]pyrimidin-2-yl] spiro[in-doline-3,4′-piperidin]-2-one], the pIC50 at tankyrase 2 (TNKS 2) and at tankyrase 1 (TNKS 1) was over 7.70 each time. In test [1], the GI50 lay in the range of 100 to 600 nM.
As for `COc1cc(F)c2c(c1)N(C)C(=O)C21CCN(c2nc3c(c(=O)[nH]2)CCCN3C)CC1` [Example 372, 4-fluoro-6-methoxy-1-methyl-1′-(8-methyl-4-oxo-3,4,5,6,7,8-hexahydropyrido [2,3-d]pyrimidin-2-yl) spiro[indoline-3,4'-piperidin]-2-one], the pIC50 on tankyrase 2 (TNKS 2) and on tankyrase 1 (TNKS 1) was over 7.70 throughout. Besides, the GI50 in test [1] is 100 to 600 nM.
`COc1cc(F)c2c(c1)N(CCO)C(=O)C21CCN(c2nc3c(c(=O)[nH]2)CCCN3C)CC1` [Example 373, 4-fluoro-1-(2-hydroxy-ethyl)-6-methoxy-1′-(8-methyl-4-oxo-3,4,5,6,7,8-hexahydropyrido [2,3-d]pyrimidin-2-yl) spiro[indoline-3,4′-piperidin]-2-one]: the pIC50 at tankyrase 2 (TNKS 2) and on tankyrase 1 (TNKS 1) was over 7.70 in each case. Further, the GI50 in test [1] was under 100 nM.
With `CN1CCCc2c1nc(N1CCC3(CC1)C(=O)N(CC#N)c1cc(F)cc(F)c13)[nH]c2=O` [Example 374, 2-(4,6-difluoro-1′-(8-methyl-4-oxo-3,4,5,6,7,8-hexahydropyrido [2,3-d]pyrimidin-2-yl)-2-oxospiro[indoline-3,4′-piperidin]-1-yl)acetonitrile], the pIC50 at tankyrase 2 (TNKS 2) and at tankyrase 1 (TNKS 1) was over 7.70 each time. Moreover, the GI50 in test [1] is under 100 nM.
In the case of `CN(C)CCOc1cc(Cl)c2c(c1)N(C)C(=O)C21CCN(c2nc3c(c(=O)[nH]2)CCCN3C)CC1` [Example 375, 4-chloro-6-[2-(dimethylamino)ethoxy]-1-methyl-1′-(8-methyl-4-oxo-3,4,5,6,7,8-hexahydro-pyrido[2,3-d]pyrimidin-2-yl) spiro[indoline-3,4′-piperidin]-2-one], the pIC50 at tankyrase 2 (TNKS 2) and on tankyrase 1 (TNKS 1) was over 7.70 each time. For the same molecule, the GI50 in test [1] was 100 to 600 nM.
As to `CN1CCCc2c1nc(N1CCC3(CC1)C(=O)N(C)c1cc(OCCN4CCCCC4)cc(Cl)c13)[nH]c2=O` [Example 376, 4-chloro-1-methyl-1′-(8-methyl-4-oxo-3,4,5,6,7,8-hexahydropy-rido[2,3-d]pyrimidin-2-yl)-6-(2-(piperidin-1-yl)ethoxy)spiro [indoline-3,4′-piperidin]-2-one], the pIC50 at tankyrase 2 (TNKS 2) and on tankyrase 1 (TNKS 1) was over 7.70 each time. The GI50 in test [1] fell in the range of 100 to 600 nM.
In the case of `CN1CCCc2c1nc(N1CCC3(CC1)C(=O)N(C)c1cc(OCCN4CCOCC4)cc(Cl)c13)[nH]c2=O` [Example 377, 4-chloro-1-methyl-1′-(8-methyl-4-oxo-3,4,5,6,7,8-hexahydropy-rido[2,3-d]pyrimidin-2-yl)-6-(2-morpholino-ethoxy) spiro[indoline-3,4′-piperidin]-2-one], the pIC50 on tankyrase 2 (TNKS 2) and at tankyrase 1 (TNKS 1) was over 7.70 throughout. For the same molecule, the GI50 in test [1] fell in the range of 100 to 600 nM.
In the case of `CN1CCCc2c1nc(N1CCC3(CC1)C(=O)N(C)c1cc(OCCN4CCS(=O)(=O)CC4)cc(Cl)c13)[nH]c2=O` [Example 378, 4-chloro-6-[2-(1,1-dioxi-dothio-morpholino)ethoxy]-1-methyl-1′-(8-methyl-4-oxo-3,4,5,6,7,8-hexahydropyrido [2,3-d]pyrimidin-2-yl)spiro [indoline-3,4′-piperidin]-2-one], the pIC50 at tankyrase 2 (TNKS 2) and at tankyrase 1 (TNKS 1) was over 7.70 in each case. The GI50 in test [1] was 600 to 1000 nM.
`COc1cc(F)c2c(c1)N(CC#N)C(=O)C21CCN(c2nc3c(c(=O)[nH]2)CCCN3C)CC1` [Example 379, 2-[4-fluoro-6-methoxy-1′-(8-methyl-4-oxo-3,4,5,6,7,8-hexahydropyrido [2,3-d]pyrimidin-2-yl)-2-oxospiro [indoline-3,4′-piperidin]-1-yl] acetonitrile]: the pIC50 on tankyrase 2 (TNKS 2) and at tankyrase 1 (TNKS 1) was over 7.70 in each case. Besides, the GI50 in test [1] was under 100 nM.
`CN1CCC(Oc2cc(F)c3c(c2)N(C)C(=O)C32CCN(c3nc4c(c(=O)[nH]3)CCCN4C)CC2)CC1` [Example 380, 4-fluoro-1-methyl-1′-(8-methyl-4-oxo-3,4,5,6,7,8-hexahydropyrido [2,3-d]pyrimidin-2-yl)-6-[(1-methylpiperidin-4-yl)oxy]spiro [indoline-3,4′-piperidin]-2-one]: the pIC50 at tankyrase 2 (TNKS 2) and at tankyrase 1 (TNKS 1) was over 7.70 in each case. Further, in test [1], the GI50 fell in the range of 600 to 1000 nM.
`CN1CCCc2c1nc(N1CCC3(CC1)C(=O)N(CCO)c1cc(OCCO)cc(F)c13)[nH]c2=O` [Example 381, 4-fluoro-6-(2-hydroxy-thoxy)-1-(2-hydroxyethyl)-1′-(8-methyl-4-oxo-3,4,5,6,7,8-hexahydropyrido [2,3-d]pyrimidin-2-yl)spiro [indoline-3,4′-piperidin]-2-one]: the pIC50 at tankyrase 2 (TNKS 2) and at tankyrase 1 (TNKS 1) was over 7.70 each time. Besides, the GI50 in test [1] was in the range of 100 to 600 nM.
Consider `CCN1CCCc2c1nc(N1CCC3(CC1)C(=O)N(CCO)c1cc(F)cc(F)c13)[nH]c2=O` [Example 382, 1′-(8-ethyl-4-oxo-3,4,5,6,7-hexahydropyrido-[2,3-d]pyrimidin-2-yl)-4,6-difluoro-1-(2-hy-droxyethyl)spiro [indoline-3,4′-piperidin]-2-one], for which the pIC50 at tankyrase 2 (TNKS 2) and at tankyrase 1 (TNKS 1) was over 7.70 each time. In test [1], the GI50 lay in the range of 100 to 600 nM.
